Publication PMC5357639 (Frontiers in Chemistry, 2017)
Entries after “also recorded” stand apart in the source; their conditions may differ. Like-named read-outs stand apart in the source and are kept apart here. Where a SMILES comes first, the peptide text is derived from it. The star is where a group is joined. Orn(α-tetramethylguanidino) = CN(C)C(=N[C@@H](CCCN)C(=O)*)N(C)C

What was measured:
E. coli ATCC 25922 [1] = conditions: ref Czihal et al., 2012, cited from earlier work
Text: Antimicrobial peptides (AMPs) are considered as promising alternatives to common antibiotics that threateningly lose their therapeutic potentials against multidrug-resistant pathogens (Fox, [2013]; Wang et al., [2015]). In contrast to approved therapeutic peptide hormones, antimicrobial peptides have to be administered at much higher doses, which may amplify general drawbacks of peptide therapeutics. […] Api137 appeared more efficient in this septicemia model due to the better scores obtained at ... || Apidaecin analogs Api88 and Api137 are similarly active against Gram-negative bacteria with a tendency of higher activity of Api88 against K. pneumoniae (Czihal et al., [2012]; Berthold et al., [2013]). However, Api88 carries a C-terminal amide that is responsible for its very fast proteolytic cleavage in serum, the supernatant obtained after complete coagulation and centrifugation of blood. The in vitro serum stability assay, which is an important in vitro criterion to select therapeutic peptides for systemic applications, yielded very short half-life times of 5 min for Api88, which indicate ...

E. coli ATCC 25922 [2] = assay: Systemic septicemia infection mouse model (lethal intraperitoneal E. coli infection); format: in vivo, NMRI mice
Experimental: (§1) The acute toxicity of Api137 was studied by administering doses of 20, 40, 80, and 120 mg/kg intraperitoneally (i.p.) four times daily (0, 3, 7, and 24 h) into female NMRI mice (24–32 g, ~7 weeks old). For in vivo efficacy, female NMRI mice (high dose experiment: 24–27.1 g, 6 weeks; low dose experiment: 26.8–30.3 g, 7 weeks) were infected intraperitoneal with E. coli ATCC 25922, as described before (Czihal et al., [2012]; Knappe et al., [2012]). Briefly, each mouse was infected with 9 × 10^5 bacteria in the presence of 2.5% (w/v) mucin (0.3 mL in total). Mucin restricts acute macrophage activation in the intraperitoneal space and promotes establishment of a reproducible infection (Frimodt-Møller et al., [1999]). Mice were observed three times daily for their health status for a total of 5 days post-infection and weighed 1 day before and 1 and 5 days after infection. In accordance with the guidelines of the Animal Care and Usage Committee of the Landesdirektion Leipzig, moribund mice were euthanized.
Apidaecin Api137 (high dose experiment: 2.5 and 1.25 mg/kg body weight; low dose experiment: 0.6 and 0.3 mg/kg body weight) was administered intraperitoneal (0.3 mL) in seven mice per group three times post-infection (1, 4, and 8 h) as antibacterial therapy. Each experiment included seven mice receiving ciprofloxacin (40 mg/kg body weight) and four mice receiving only the vehicle (5% glucose in water, w/v) as positive and negative controls, respectively.

[3] = Acute toxicity, intraperitoneal administration; format: in vivo, NMRI mice
Experimental: as §1

[4] = Peptide recovery in spiked blood and organ homogenates; format: in vitro ADME, NMRI mice; conditions: LC-MS MRM, mean n = 3
Experimental: plasma samples and organ homogenates relative to equally concentrated peptide solutions in pure w ater. Concentrations of samples below the LOQ but still detectable were set to the value of the LOD, whereas signals with peak hei ghts below the LOD were set to 0 µg/m L.
Method M3: Recovery rates in plasma and organ homogenates
Li -heparin blood samples obtained from untreated NMRI mice were spiked with Api88 or Api137 (final concentrations: 2.5 or 10 µ g/ m L), incubated (10 min, RT), and centrifuged (2,000x g, 3 min, RT) to obtain plasma. […]
500 µ L, 0.2 or 2 µg/m L, l iver: 500 µ L, 1 or 2.5 µ g/m L, kidne ys: 500 µ L, 20 or 60 µg/m L). […] Recoveries were calculated b y assumin g a total blood (plasma) volume of 75 (25) m L per k g mouse weight 3 and that the measured organ weight (in g) corresponds to the organ volume (in m L). […]
Apidaecin peptides were selectively and sensitively quantified based on the methods established for oncocins Onc72 and Onc112 (Sch midt R. et al J AC 2016). […]
Table S12. Recover y rates of Api88 and Api137 determined in plasma and organ homogenates (n = 3) collected from untreated NMRI mice. […]
500 µ L, 1 or 2.5 µg/m L, kidneys: 500 µ L, 20 o r 60 µg/m L) were added p rior to homogenization and centrifugation. […] The total peptide amount in mice was calculated from the recover y rates shown […]

CC[C@H](C)[C@H](NC(=O)[C@H](Cc1ccc(O)cc1)NC(=O)[C@@H](NC(=O)[C@@H]1CCCN1C(=O)[C@H](CCCNC(=N)N)NC(=O)[C@H](CC(N)=O)NC(=O)[C@H](CC(N)=O)NC(=O)[C@H](CCCN)N=C(N(C)C)N(C)C)C(C)C)C(=O)N1CCC[C@H]1C(=O)N[C@@H](CCCNC(=N)N)C(=O)N1CCC[C@H]1C(=O)N[C@@H](CCCNC(=N)N)C(=O)N1CCC[C@H]1C(=O)N1CCC[C@H]1C(=O)N[C@@H](Cc1c[nH]cn1)C(=O)N1CCC[C@H]1C(=O)N[C@@H](CCCNC(=N)N)C(=O)N[C@@H](CC(C)C)C(N)=O [Api88] ({Orn(α-tetramethylguanidino)}-NNRPVYIPRPRPPHPRL-NH2)
Survival (E. coli ATCC 25922 [1]; 2.5 and 1.25 mg/kg i.p.): rescued all NMRI mice | Dose rescuing all mice (E. coli ATCC 25922 [1]; same infection model): 1.25 mg/kg

CC[C@H](C)[C@H](NC(=O)[C@H](Cc1ccc(O)cc1)NC(=O)[C@@H](NC(=O)[C@@H]1CCCN1C(=O)[C@H](CCCNC(=N)N)NC(=O)[C@H](CC(N)=O)NC(=O)[C@H](CC(N)=O)NC(=O)[C@H](CCCN)N=C(N(C)C)N(C)C)C(C)C)C(=O)N1CCC[C@H]1C(=O)N[C@@H](CCCNC(=N)N)C(=O)N1CCC[C@H]1C(=O)N[C@@H](CCCNC(=N)N)C(=O)N1CCC[C@H]1C(=O)N1CCC[C@H]1C(=O)N[C@@H](Cc1c[nH]cn1)C(=O)N1CCC[C@H]1C(=O)N[C@@H](CCCNC(=N)N)C(=O)N[C@@H](CC(C)C)C(=O)O [Api137] ({Orn(α-tetramethylguanidino)}-NNRPVYIPRPRPPHPRL-OH)
Survival (E. coli ATCC 25922 [2]; 0.3 mg/kg i.p. three times post-infection (1, 4, 8 h), n = 7): four out of seven mice | Survival (E. coli ATCC 25922 [2]; 0.6 mg/kg (and higher) i.p. three times post-infection (1, 4, 8 h), n = 7, 5 days observation): rescued all NMRI mice; also recorded: rescuing all animals | Dose rescuing all mice (E. coli ATCC 25922 [2]; i.p. three times post-infection): 0.6 mg/kg | ED50 (E. coli ATCC 25922 [2]; i.p. three times post-infection (1, 4, 8 h), approximate): ~0.3 mg/kg | Adverse side effects ([3]; 120 mg/kg per injection i.p. four times (0, 3, 7, 24 h)): signs of discomfort in some animals and decreased mobility for up to 20 min after administration | Survival ([3]; 120 mg/kg per injection i.p. four times, observation period 5 days): all mice survived | Adverse side effects ([3]; 20, 40 and 80 mg/kg per injection i.p. four times (0, 3, 7, 24 h), seven animals per dose group): none of the seven animals per dose group showed any signs of adverse side effects | Recovery rate, Kidney, low concentration ([4]; peptide 20 µg/mL in 500 µL PBS with protease inhibitor added prior to homogenization): 3.5 ± 0.4% | Recovery rate, Kidney, high concentration ([4]; peptide 60 µg/mL in 500 µL PBS with protease inhibitor added prior to homogenization): 2.7 ± 0.7%
